Measured values as given in patent publication US11608338B2, “Imidazolonylquinolines and the use thereof as ATM kinase inhibitors” (priority 2015, dated 2023).

What was measured:
Format in all cases: biochemical
PI3K p110α/p85α (human) = PI3K p110α/p85α (human) (Homo sapiens (Human), UniProt P42336); assay: PI3K p110α/p85α (human), non-radioactive assay (HTRF); details: ATM versus PI3Kalpha
Protocol: PI3K p110α/p85α (Human), Non-Radioactive Assay
(§1) PI3K p110α/p85α (human) was incubated in an assay buffer comprising 10 μM phosphatidylinositol 4,5-bisphosphate and MgATP (concentration as necessary). The reaction was initiated by addition of MgATP solution. After incubation at room temperature for 40 minutes, the reaction was stopped by addition of a solution consisting of EDTA and biotinylated phosphatidylinositol 3,4,5-trisphosphate. Finally, the detection buffer, consisting of a europium-labelled anti-GST monoclonal antibody, a GST-labelled GRP1 PH domain and streptavidin allophycocyanin, was added. The plate was read out via homogeneous time-resolved fluorescence (HTRF) and the corresponding signals were evaluated via the formula HTRF=10000×(Em665 nm/Em620 nm).

PI3K p110δ/p85α (human) = PI3K p110δ/p85α (human) (Homo sapiens (Human), UniProt O00329); assay: PI3K p110δ/p85α (human), non-radioactive assay (HTRF); details: ATM versus PI3Kdelta
PI3K p110δ/p85α (human), sequence (O00329 whole entry): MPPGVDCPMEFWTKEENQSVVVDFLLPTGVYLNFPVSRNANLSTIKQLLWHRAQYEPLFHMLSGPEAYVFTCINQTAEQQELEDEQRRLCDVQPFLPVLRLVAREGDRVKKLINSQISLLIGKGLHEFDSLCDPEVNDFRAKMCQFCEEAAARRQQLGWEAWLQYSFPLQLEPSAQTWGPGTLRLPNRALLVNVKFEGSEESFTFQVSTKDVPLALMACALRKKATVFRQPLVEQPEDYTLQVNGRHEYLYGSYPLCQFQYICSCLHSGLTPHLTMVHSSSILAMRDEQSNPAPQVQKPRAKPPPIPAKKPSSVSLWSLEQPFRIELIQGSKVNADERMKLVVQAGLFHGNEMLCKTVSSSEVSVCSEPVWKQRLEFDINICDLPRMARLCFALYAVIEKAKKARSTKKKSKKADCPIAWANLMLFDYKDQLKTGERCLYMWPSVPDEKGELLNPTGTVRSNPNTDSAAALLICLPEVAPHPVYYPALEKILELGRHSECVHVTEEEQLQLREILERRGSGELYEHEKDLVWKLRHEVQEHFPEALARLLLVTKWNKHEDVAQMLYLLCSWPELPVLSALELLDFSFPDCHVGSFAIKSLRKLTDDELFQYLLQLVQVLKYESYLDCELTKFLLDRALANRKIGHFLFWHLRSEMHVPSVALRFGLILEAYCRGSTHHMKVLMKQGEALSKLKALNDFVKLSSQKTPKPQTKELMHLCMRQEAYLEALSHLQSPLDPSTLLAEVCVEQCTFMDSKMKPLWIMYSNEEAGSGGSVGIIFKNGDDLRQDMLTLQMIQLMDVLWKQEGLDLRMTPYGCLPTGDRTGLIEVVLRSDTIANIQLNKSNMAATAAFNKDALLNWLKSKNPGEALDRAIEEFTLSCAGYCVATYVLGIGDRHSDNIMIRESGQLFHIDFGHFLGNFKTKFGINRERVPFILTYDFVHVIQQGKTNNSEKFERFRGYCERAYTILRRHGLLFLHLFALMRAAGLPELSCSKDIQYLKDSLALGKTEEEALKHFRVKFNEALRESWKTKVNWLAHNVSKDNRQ
PI3K p110δ/p85α (human), sequence (P27986 whole entry partner): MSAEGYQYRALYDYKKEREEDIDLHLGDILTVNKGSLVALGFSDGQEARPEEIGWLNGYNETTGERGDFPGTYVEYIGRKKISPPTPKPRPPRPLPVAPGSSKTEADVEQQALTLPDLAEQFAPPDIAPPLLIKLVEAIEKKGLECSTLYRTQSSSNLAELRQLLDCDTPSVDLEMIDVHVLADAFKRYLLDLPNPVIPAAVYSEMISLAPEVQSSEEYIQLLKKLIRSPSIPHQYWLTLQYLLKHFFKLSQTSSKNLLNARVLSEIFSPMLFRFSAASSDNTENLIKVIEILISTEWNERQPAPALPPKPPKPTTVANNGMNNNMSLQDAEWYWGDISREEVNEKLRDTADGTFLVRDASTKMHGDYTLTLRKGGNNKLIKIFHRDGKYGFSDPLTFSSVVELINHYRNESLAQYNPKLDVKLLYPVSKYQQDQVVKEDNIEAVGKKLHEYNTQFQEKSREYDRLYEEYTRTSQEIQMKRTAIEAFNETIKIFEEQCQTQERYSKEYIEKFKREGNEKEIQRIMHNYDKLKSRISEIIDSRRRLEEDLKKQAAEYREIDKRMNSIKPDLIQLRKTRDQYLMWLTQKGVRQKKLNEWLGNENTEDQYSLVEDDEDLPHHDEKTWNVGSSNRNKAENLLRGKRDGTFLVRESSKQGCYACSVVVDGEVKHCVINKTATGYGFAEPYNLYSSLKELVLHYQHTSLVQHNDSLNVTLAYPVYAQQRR
Protocol: PI3K p110δ/p85α (Human), Non-Radioactive Assay
as §1, with “p110δ/p85α” for “p110α/p85α”, “After an” for “After”, “incubation time of 30 min” for “incubation”, “temperature,” for “temperature for 40 minutes,”

PI3K (p120γ) (human) = PI3K (p120γ) (human) (Homo sapiens (Human), UniProt P48736); assay: PI3K (p120γ) (human), non-radioactive assay (HTRF); details: ATM versus PI3Kgamma
PI3K (p120γ) (human), sequence (P48736 whole entry): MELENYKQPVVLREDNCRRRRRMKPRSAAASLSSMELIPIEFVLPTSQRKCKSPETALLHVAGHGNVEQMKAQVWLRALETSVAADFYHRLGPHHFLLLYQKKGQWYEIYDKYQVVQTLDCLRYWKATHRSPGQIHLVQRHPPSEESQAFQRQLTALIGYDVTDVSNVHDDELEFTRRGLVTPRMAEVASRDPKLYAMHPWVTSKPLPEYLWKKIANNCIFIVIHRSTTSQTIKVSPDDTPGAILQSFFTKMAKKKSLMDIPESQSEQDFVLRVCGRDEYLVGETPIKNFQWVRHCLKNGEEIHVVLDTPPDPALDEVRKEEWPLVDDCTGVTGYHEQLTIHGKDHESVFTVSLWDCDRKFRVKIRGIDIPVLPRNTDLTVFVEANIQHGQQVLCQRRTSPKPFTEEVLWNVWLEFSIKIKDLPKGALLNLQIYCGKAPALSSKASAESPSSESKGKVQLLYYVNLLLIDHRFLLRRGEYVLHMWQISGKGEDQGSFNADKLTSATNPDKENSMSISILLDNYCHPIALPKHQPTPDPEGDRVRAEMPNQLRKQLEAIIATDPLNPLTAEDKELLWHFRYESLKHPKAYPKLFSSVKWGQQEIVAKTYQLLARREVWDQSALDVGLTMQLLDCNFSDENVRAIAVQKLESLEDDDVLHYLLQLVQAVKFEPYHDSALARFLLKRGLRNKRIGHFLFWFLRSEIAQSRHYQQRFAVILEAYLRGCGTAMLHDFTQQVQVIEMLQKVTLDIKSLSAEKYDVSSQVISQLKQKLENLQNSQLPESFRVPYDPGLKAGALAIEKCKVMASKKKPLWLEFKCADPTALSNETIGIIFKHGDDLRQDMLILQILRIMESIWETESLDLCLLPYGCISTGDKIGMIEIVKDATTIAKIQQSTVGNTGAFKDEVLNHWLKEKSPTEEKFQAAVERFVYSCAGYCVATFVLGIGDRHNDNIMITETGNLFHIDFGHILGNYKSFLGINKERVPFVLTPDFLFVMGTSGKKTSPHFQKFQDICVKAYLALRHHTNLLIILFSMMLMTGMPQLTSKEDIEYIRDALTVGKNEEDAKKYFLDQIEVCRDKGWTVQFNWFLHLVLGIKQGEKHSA
Protocol: PI3K (p120γ) (Human), Non-Radioactive Assay
as §1, with “(p120γ)” for “p110α/p85α”, “After an” for “After”, “incubation time of 30 min” for “incubation”, “temperature,” for “temperature for 40 minutes,”, “nm). • MgATP=magnesium 5′-O-[hydroxy({[(hydroxyphosphinato)oxy]phosphinato}oxy)phosphoryl]adenosine • MgCl2=magnesium dichloride • EGTA=ethylene glycol bis(aminoethyl ether) N,N,N′,N′-tetraacetic acid • Tween 20=polysorbate 20 Medicament/Pharmaceutical Composition” for “nm).”

mTOR (human) = mTOR (human) (Homo sapiens (Human), UniProt P42345); assay: mTOR (human) radiometric kinase assay; details: ATM versus mTOR
Protocol: Furthermore, the effect, in particular inhibition, of other kinases and thus the selectivity of the compounds according to the invention can be determined with the aid of the following assay:
mTOR (human) was incubated with 50 mM HEPES pH 7.5, 1 mM EGTA, 0.01% Tween 20, 2 mg/ml of the substrate, 3 mM MnCl2 and [γ-^33P-ATP] (specific activity approximately 500 cpm/pmol, concentration as necessary). The reaction was initiated by addition of MgATP solution. After incubation at room temperature for 40 minutes, the reaction was stopped by addition of 3% phosphoric acid. 10 μl of the reaction solution were then transferred dropwise onto a P30 filtermat and washed three times for 5 min in 75 mM phosphoric acid and once in methanol, dried and evaluated by means of liquid scintillation counting.

PI3K p110α/p85α (human), sequence (P42336 whole entry): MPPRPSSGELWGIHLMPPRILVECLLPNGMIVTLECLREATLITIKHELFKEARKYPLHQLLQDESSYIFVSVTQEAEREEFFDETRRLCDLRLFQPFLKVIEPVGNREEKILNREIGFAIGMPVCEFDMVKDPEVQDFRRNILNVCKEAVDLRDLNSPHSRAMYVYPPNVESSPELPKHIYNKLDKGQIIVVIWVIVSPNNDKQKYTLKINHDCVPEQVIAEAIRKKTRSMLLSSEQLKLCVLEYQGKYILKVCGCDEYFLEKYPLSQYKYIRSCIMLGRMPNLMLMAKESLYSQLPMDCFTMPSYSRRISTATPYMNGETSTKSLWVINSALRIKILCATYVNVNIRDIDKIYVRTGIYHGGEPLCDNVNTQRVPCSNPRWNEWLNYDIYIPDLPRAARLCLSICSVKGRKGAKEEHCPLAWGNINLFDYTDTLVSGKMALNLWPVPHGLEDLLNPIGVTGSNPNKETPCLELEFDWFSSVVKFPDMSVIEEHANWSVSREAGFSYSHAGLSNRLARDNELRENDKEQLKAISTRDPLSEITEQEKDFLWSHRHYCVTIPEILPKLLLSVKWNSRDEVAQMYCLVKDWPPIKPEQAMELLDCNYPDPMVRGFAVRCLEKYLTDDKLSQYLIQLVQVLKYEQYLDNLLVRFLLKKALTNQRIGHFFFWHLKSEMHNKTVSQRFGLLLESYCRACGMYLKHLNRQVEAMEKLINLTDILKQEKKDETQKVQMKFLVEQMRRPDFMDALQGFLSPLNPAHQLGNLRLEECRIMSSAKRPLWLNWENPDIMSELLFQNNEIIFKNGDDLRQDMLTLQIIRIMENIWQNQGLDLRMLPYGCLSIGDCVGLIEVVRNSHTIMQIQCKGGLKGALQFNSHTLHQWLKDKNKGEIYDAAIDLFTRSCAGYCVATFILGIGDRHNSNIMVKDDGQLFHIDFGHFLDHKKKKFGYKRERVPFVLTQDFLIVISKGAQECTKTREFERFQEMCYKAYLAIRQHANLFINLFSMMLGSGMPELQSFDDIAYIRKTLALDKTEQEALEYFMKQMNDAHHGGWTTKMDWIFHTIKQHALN
PI3K p110α/p85α (human), sequence (P27986 whole entry partner): as the sequence (P27986 whole entry partner) above

Q: What does the source list for COc1cc2ncc3c(c2cc1-c1cnn(C)c1)n(-c1ncc(N2CCNCC2)cc1F)c(=O)n3C [Example 123, 1-(3-Fluoro-5-piperazin-1-yl-pyridin-2-yl)-7-methoxy-3-methyl-8-(1-methyl-1H-pyrazol-4-yl)-1,3-dihydro-imidazo[4,5-c]quinolin-2-one]?
A: ratio of IC50 (ATM) and IC50 (PI3Kalpha), selectivity with respect to PI3Kalpha (PI3K p110α/p85α (human)): at least 2000 times; ratio of IC50 (ATM) and IC50 (PI3Kdelta), selectivity with respect to PI3Kdelta (PI3K p110δ/p85α (human)): at least 2000 times; ratio of IC50 (ATM) and IC50 (PI3Kgamma), selectivity with respect to PI3Kgamma (PI3K (p120γ) (human)): at least 2000 times

Q: How did the “ratio IC50 (ATM):IC50 (mTOR), selectivity with respect to mTOR” value (mTOR (human)) turn out when COc1cc2ncc3c(c2cc1-c1cn(C)nc1C)n(-c1c(F)cncc1OC(F)F)c(=O)n3C [Example 147, 1-(3-Difluoromethoxy-5-fluoropyridin-4-yl)-8-(1,3-dimethyl-1H-pyrazol-4-yl)-7-methoxy-3-methyl-1,3-dihydroimidazo[4,5-c]-quinolin-2-one] was run?
A: at least 2000 times

Q: For COc1cc2ncc3c(c2cc1-c1cnn(C)c1)n(-c1cc2[nH]ccc2cn1)c(=O)n3C [Example 120, 7-Methoxy-3-methyl-8-(1-methyl-1H-pyrazol-4-yl)-1-(1H-pyrrolo[3,2-c]pyridin-6-yl)-1,3-dihydroimidazo-[4,5-c]quinolin-2-one], which “ratio IC50 (ATM):IC50 (mTOR), selectivity with respect to mTOR” value (mTOR (human)) is on record?
A: at least 2000 times

Q: What about the “ratio of IC50 (ATM) and IC50 (PI3Kalpha), selectivity with respect to PI3Kalpha” value (“ratio … selectivity with respect to PI3Kalpha” for short) (PI3K p110α/p85α (human)) of the same compound?
A: at least 2000 times

Q: What about the “ratio of IC50 (ATM) and IC50 (PI3Kdelta), selectivity with respect to PI3Kdelta” value (from here on “ratio … selectivity with respect to PI3Kdelta”) (PI3K p110δ/p85α (human)) of the same compound?
A: at least 2000 times

Q: What about the “ratio of IC50 (ATM) and IC50 (PI3Kgamma), selectivity with respect to PI3Kgamma” value (from here on “ratio … selectivity with respect to PI3Kgamma”) (PI3K (p120γ) (human)) of the same compound?
A: at least 2000 times

Q: With COc1cc2ncc3c(c2cc1-c1c[nH]nc1C)n(-c1ncc(F)cc1F)c(=O)n3C [Example 117, 1-(3,5-Difluoropyridin-2-yl)-7-methoxy-3-methyl-8-(3-methyl-1H-pyrazol-4-yl)-1,3-dihydroimidazo[4,5-c]-quinolin-2-one] as the compound, how does the “ratio … selectivity with respect to PI3Kalpha” value (PI3K p110α/p85α (human)) read?
A: at least 2000 times

Q: And the “ratio … selectivity with respect to PI3Kdelta” value (PI3K p110δ/p85α (human))?
A: at least 2000 times

Q: And the “ratio … selectivity with respect to PI3Kgamma” value (PI3K (p120γ) (human))?
A: at least 2000 times

Q: CCc1cnccc1-n1c(=O)n(C)c2cnc3cc(OC)c(-c4cnn(CC)c4)cc3c21 [Example 157, 8-(1-Ethyl-1H-pyrazol-4-yl)-1-(3-ethylpyridin-4-yl)-7-methoxy-3-methyl-1,3-dihydroimidazo[4,5-c] quinolin-2-one] was tested. Which “ratio IC50 (ATM):IC50 (mTOR), selectivity with respect to mTOR” value (mTOR (human)) did it give?
A: at least 2000 times

Q: COc1cc2ncc3c(c2cc1-c1cc[nH]n1)n(-c1cn(C)nc1C)c(=O)n3C [Example 121, 1-(1,3-Dimethyl-1H-pyrazol-4-yl)-7-methoxy-3-methyl-8-(1H-pyrazol-3-yl)-1,3-dihydroimidazo[4,5-c]-quinolin-2-one] was tested. Which “ratio IC50 (ATM):IC50 (mTOR), selectivity with respect to mTOR” value (mTOR (human)) did it give?
A: at least 2000 times

Q: Which “ratio IC50 (ATM):IC50 (mTOR), selectivity with respect to mTOR” value (mTOR (human)) does the source give for COc1cnc(-n2c(=O)n(C)c3cnc4cc(OC)c(-c5c[nH]nc5C)cc4c32)c(F)c1 [Example 122, 1-(3-Fluoro-5-methoxy-pyridin-2-yl)-7-methoxy-3-methyl-8-(3-methyl-1H-pyrazol-4-yl)-1,3-dihydro-imidazo[4,5-c]quinolin-2-one] here?
A: at least 2000 times

Q: What about the “ratio … selectivity with respect to PI3Kalpha” value (PI3K p110α/p85α (human)) of the same compound?
A: at least 2000 times

Q: And the “ratio … selectivity with respect to PI3Kdelta” value (PI3K p110δ/p85α (human))?
A: at least 2000 times

Q: What about the “ratio … selectivity with respect to PI3Kgamma” value (PI3K (p120γ) (human)) of the same compound?
A: at least 2000 times

Q: Which “ratio … selectivity with respect to PI3Kalpha” value (PI3K p110α/p85α (human)) does the source give for COc1cc2ncc3c(c2cc1-c1cnn(C)c1)n(-c1ncc(OC2CNC2)cc1F)c(=O)n3C [Example 205, 1-[5-(Azetidin-3-yloxy)-3-fluoropyridin-2-yl]-7-methoxy-3-methyl-8-(1-methyl-1H-pyrazol-4-yl)-1,3-dihydroimidazo[4,5-c]-quinolin-2-one] here?
A: at least 2000 times

Q: And the “ratio … selectivity with respect to PI3Kdelta” value (PI3K p110δ/p85α (human))?
A: at least 2000 times

Q: What about the “ratio … selectivity with respect to PI3Kgamma” value (PI3K (p120γ) (human)) of the same compound?
A: at least 2000 times

Q: How did the “ratio IC50 (ATM):IC50 (mTOR), selectivity with respect to mTOR” value (mTOR (human)) turn out when CNC(=O)c1cnc(-n2c(=O)n(C)c3cnc4cc(OC)c(-c5cnn(C)c5)cc4c32)c(F)c1 [Example 138, 5-Fluoro-6-[7-methoxy-3-methyl-8-(1-methyl-1H-pyrazol-4-yl)-2-oxo-2,3-dihydroimidazo[4,5-c]-quinolin-1-yl]-N-methyl-nicotinamid] was run?
A: at least 2000 times

Q: With COCCOc1cnc(-n2c(=O)n(C)c3cnc4cc(OC)c(-c5cnn(C)c5)cc4c32)c(F)c1 [Example 66, 1-[3-Fluoro-5-(2-methoxy-ethoxy)-2-pyridyl]-7-methoxy-3-methyl-8-(1-methylpyrazol-4-yl)imidazo-[4,5-c]quinolin-2-one] as the compound, how does the “ratio … selectivity with respect to PI3Kalpha” value (PI3K p110α/p85α (human)) read?
A: at least 2000 times

Q: What about the “ratio … selectivity with respect to PI3Kdelta” value (PI3K p110δ/p85α (human)) of the same compound?
A: at least 2000 times

Q: What about the “ratio … selectivity with respect to PI3Kgamma” value (PI3K (p120γ) (human)) of the same compound?
A: at least 2000 times

Q: Which results are given for COc1cc2ncc3c(c2cc1-c1cnn(C)c1)n(-c1ncc(OCCO)cc1F)c(=O)n3C [Example 67, 1-[3-Fluoro-5-(2-hydroxy-ethoxy)-2-pyridyl]-7-methoxy-3-methyl-8-(1-methylpyrazol-4-yl)imidazo-[4,5-c]quinolin-2-one]?
A: ratio of IC50 (ATM) and IC50 (PI3Kalpha), selectivity with respect to PI3Kalpha (PI3K p110α/p85α (human)): at least 2000 times; ratio of IC50 (ATM) and IC50 (PI3Kdelta), selectivity with respect to PI3Kdelta (PI3K p110δ/p85α (human)): at least 2000 times; ratio of IC50 (ATM) and IC50 (PI3Kgamma), selectivity with respect to PI3Kgamma (PI3K (p120γ) (human)): at least 2000 times

Q: Which “ratio IC50 (ATM):IC50 (mTOR), selectivity with respect to mTOR” value (mTOR (human)) does the source give for CCc1cncc(F)c1-n1c(=O)n(C)c2cnc3cc(OC)c(-c4cn(C)nn4)cc3c21 [Example 126, 1-(3-Ethyl-5-fluoropyridin-4-yl)-7-methoxy-3-methyl-8-(1-methyl-1H-1,2,3-triazol-4-yl)-1,3-dihydroimidazo-[4,5-c] quinolin-2-one] here?
A: at least 2000 times

Q: What about the “ratio … selectivity with respect to PI3Kalpha” value (PI3K p110α/p85α (human)) of the same compound?
A: at least 2000 times

Q: And the “ratio … selectivity with respect to PI3Kdelta” value (PI3K p110δ/p85α (human))?
A: at least 2000 times

Q: What about the “ratio … selectivity with respect to PI3Kgamma” value (PI3K (p120γ) (human)) of the same compound?
A: at least 2000 times

Q: With COc1cc2ncc3c(c2cc1-c1cnn(C)c1)n(-c1ncc(OC(F)F)cc1F)c(=O)n3C [Example 114, 1-(5-Difluoromethoxy-3-fluoropyridin-2-yl)-7-methoxy-3-methyl-8-(1-methyl-1H-pyrazol-4-yl)-1,3-dihydroimidazo[4,5-c]-quinolin-2-one] as the compound, how does the “ratio IC50 (ATM):IC50 (mTOR), selectivity with respect to mTOR” value (mTOR (human)) read?
A: at least 2000 times

Q: What about the “ratio … selectivity with respect to PI3Kalpha” value (PI3K p110α/p85α (human)) of the same compound?
A: at least 2000 times

Q: And the “ratio … selectivity with respect to PI3Kdelta” value (PI3K p110δ/p85α (human))?
A: at least 2000 times

Q: And the “ratio … selectivity with respect to PI3Kgamma” value (PI3K (p120γ) (human))?
A: at least 2000 times

Q: How did the “ratio IC50 (ATM):IC50 (mTOR), selectivity with respect to mTOR” value (mTOR (human)) turn out when COc1cc2ncc3c(c2cc1-c1cnn(C)c1)n(-c1cn(C)nc1F)c(=O)n3C [Example 141, 1-(3-Fluoro-1-methyl-1H-pyrazo1-4-yl)-7-methoxy-3-methyl-8-(1-methyl-1H-pyrazol-4-yl)-1,3-dihydro-imidazo[4,5-c]quinolin-2-one] was run?
A: at least 2000 times
